In patent US7982030B2, “Synthesis of selenium-derivatized nucleosides, nucleotides, phosphoramidites, triphosphates and nucleic acids” (Georgia State University Research Foundation, Inc., priority 2001, dated 2011):

Target: T1, DNA polymerase (Klenow Fragment) (Escherichia coli, UniProt P00582)
T1 construct: using a DNA polymerase (Klenow Fragment)
Test: terminal extension on a DNA template: substrate recognition by Klenow
Format: biochemical
Details: 3′-terminal extension on a DNA template
Description: An alternative approach to label RNAs with selenium is based on the RNA 3′-labeling method (FIG. 9). See ref. 33. After a long RNA is prepared by transcription using ordinary NTPs, α-Se-dNTPs is transferred to its 3′-terminus on a DNA template using a DNA polymerase (Klenow Fragment). […] Experiments also reveal that the number of incorporated dNTPs is dependent on the length of the overhanging nucleotides of the template, and the terminal extension reaction giving full-length product with high yields in the presence of high dNTP concentration. The products may be purified by any one of a variety of methods well known in the art, such as for example, preparative anion exchange HPLC, to single nucleotide resolution for RNA as long as 70 nucleotides. (Ref 34). This terminal transfer approach can be very useful for medium size RNAs (up to 80 nucleotides). An analogous approach can be used to prepare Se-DNAs.

T1 sequence (P00582 324-928): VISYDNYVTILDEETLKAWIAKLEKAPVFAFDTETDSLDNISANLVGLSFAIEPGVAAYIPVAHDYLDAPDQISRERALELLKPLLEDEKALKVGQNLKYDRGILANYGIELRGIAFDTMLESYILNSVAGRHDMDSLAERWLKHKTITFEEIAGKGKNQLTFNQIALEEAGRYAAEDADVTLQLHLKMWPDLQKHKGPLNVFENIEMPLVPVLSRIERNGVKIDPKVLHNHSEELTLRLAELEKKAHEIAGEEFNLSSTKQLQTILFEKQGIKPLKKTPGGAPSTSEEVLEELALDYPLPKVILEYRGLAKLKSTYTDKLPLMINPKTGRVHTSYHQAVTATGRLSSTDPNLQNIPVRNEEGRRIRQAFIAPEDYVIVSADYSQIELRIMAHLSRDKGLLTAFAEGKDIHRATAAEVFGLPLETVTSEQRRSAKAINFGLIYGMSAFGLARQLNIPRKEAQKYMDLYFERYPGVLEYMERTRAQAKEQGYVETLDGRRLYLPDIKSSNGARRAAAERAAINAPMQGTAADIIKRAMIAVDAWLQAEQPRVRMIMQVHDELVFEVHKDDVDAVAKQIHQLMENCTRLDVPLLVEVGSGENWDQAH

Compound: Cc1cn(C2CC(O)C(COP(O)(=[Se])OP(=O)(O)OP(=O)(O)O)O2)c(=O)[nH]c1=O (stereo not drawn) [α-Se-TTP 24]
- recognition as a substrate by Klenow: recognized α-Se-TTP 24 as a substrate
